Assays:
[1] = molecular target: Serine/threonine-protein kinase B-raf (Homo sapiens, UniProt P15056); test: Inhibition of human recombinant B-Raf expressed in Sf9 cells assessed as inhibition of Mek1 phosphorylation
[2] = molecular target: Proto-oncogene tyrosine-protein kinase Src (Homo sapiens, UniProt P12931); test: Inhibition of SRC
[3] = test system: LoVo; test: Growth inhibition of human LoVo cells; type: functional, cell-based
[4] = molecular target: Vascular endothelial growth factor receptor 2 (Homo sapiens, UniProt P35968); test: Inhibition of KDR
[5] = test system: Caco-2; test: Growth inhibition of human Caco-2 cells; type: functional, cell-based
[6] = Growth inhibition of human WM266.4 cells; type: functional, cell-based; conditions: WM 266-4
[7] = molecular target: Serine/threonine-protein kinase mTOR (Homo sapiens, UniProt P42345); test: Inhibition of mTOR
[8] = molecular target: Tyrosine-protein kinase Lck (Homo sapiens, UniProt P06239); test: Inhibition of LCK
[9] = test system: BXPC-3; test: Growth inhibition of human BxPC3 cells; type: functional, cell-based
[10] = molecular target: Tyrosine-protein kinase BTK (Homo sapiens, UniProt Q06187); test: Inhibition of BTK
[11] = molecular target: Mitogen-activated protein kinase kinase kinase 8 (Homo sapiens, UniProt P41279); test: Inhibition of Tpl2
[12] = molecular target: Phosphatidylinositol 4,5-bisphosphate 3-kinase catalytic subunit alpha isoform (Homo sapiens, UniProt P42336); test: Inhibition of PI3Kalpha
[13] = molecular target: Cyclin-dependent kinase 4 (Homo sapiens, UniProt P11802); test: Inhibition of CDK4
[14] = test system: HT-29; test: Growth inhibition of human HT-29 cells; type: functional, cell-based
[15] = test system: A-375; test: Growth inhibition of human A375 cells; type: functional, cell-based
[16] = molecular target: Insulin-like growth factor 1 receptor (Homo sapiens, UniProt P08069); test: Inhibition of IGFR1
[17] = molecular target: Tyrosine-protein kinase Lyn (Homo sapiens, UniProt P07948); test: Inhibition of LYN
[18] = molecular target: RAC-alpha serine/threonine-protein kinase (Homo sapiens, UniProt P31749); test: Inhibition of AKT
[19] = test system: SW-620; test: Growth inhibition of human SW620 cells; type: functional, cell-based

Serine/threonine-protein kinase B-raf, sequence (P15056 whole entry): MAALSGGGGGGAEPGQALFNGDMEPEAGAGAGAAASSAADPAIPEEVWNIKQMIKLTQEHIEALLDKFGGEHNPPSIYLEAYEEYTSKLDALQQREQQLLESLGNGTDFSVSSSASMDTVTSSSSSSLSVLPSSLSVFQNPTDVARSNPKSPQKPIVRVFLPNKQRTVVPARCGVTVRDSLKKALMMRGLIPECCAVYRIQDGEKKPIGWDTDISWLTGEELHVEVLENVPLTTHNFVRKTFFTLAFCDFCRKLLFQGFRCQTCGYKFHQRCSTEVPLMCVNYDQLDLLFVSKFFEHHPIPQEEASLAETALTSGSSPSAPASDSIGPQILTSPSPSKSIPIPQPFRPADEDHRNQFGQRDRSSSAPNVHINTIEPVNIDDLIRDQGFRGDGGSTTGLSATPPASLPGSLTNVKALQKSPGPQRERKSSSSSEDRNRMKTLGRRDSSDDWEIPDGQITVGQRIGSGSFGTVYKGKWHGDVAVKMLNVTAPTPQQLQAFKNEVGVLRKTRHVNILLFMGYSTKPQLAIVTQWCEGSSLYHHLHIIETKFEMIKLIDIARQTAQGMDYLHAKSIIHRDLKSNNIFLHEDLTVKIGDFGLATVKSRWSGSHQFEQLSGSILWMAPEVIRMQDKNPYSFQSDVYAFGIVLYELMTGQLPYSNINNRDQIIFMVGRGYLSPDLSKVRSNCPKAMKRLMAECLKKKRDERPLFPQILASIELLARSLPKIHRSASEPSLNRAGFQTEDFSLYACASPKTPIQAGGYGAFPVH
Proto-oncogene tyrosine-protein kinase Src, sequence (P12931 2-536 limits assumed): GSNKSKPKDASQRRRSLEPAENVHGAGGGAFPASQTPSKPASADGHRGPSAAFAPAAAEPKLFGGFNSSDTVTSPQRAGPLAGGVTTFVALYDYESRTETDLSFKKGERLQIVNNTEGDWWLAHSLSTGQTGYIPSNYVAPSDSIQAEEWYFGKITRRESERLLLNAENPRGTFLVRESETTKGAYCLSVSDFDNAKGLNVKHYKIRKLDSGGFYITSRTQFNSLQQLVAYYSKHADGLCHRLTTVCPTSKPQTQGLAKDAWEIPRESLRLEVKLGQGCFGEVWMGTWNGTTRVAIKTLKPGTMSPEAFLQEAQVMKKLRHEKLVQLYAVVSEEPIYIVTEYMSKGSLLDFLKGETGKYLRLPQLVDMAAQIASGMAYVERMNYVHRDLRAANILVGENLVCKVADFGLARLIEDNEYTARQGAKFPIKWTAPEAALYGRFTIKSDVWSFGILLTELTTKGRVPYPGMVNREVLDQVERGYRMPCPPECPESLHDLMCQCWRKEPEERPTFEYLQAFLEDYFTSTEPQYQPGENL
Mitogen-activated protein kinase kinase kinase 8, sequence (P41279 whole entry, canonical isoform): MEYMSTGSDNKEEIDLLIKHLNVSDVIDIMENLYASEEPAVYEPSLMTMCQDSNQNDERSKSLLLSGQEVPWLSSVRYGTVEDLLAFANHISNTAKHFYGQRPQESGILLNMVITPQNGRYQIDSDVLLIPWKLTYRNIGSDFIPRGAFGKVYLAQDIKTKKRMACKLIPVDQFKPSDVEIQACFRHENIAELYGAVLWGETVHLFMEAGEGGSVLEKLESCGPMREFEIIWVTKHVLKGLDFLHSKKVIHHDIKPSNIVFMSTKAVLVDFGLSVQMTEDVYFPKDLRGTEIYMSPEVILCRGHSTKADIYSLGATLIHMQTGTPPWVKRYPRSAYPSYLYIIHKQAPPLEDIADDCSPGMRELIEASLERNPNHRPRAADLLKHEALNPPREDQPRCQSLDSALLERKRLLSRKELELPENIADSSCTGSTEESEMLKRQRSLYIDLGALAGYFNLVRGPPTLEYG
RAC-alpha serine/threonine-protein kinase, sequence (P31749 whole entry): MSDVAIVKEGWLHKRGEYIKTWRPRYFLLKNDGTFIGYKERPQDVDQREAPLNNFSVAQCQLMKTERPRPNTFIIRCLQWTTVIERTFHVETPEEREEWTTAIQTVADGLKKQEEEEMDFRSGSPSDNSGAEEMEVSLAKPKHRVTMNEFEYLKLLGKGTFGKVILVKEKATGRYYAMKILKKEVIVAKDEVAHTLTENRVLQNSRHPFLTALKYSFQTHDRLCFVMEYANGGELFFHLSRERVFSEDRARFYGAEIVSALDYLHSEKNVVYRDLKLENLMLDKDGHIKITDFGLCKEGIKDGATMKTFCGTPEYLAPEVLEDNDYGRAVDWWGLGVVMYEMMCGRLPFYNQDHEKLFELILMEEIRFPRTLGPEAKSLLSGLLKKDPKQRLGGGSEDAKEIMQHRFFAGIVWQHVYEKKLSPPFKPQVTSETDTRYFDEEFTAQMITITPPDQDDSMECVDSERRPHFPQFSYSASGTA
Phosphatidylinositol 4,5-bisphosphate 3-kinase catalytic subunit alpha isoform, sequence (P42336 whole entry, canonical isoform): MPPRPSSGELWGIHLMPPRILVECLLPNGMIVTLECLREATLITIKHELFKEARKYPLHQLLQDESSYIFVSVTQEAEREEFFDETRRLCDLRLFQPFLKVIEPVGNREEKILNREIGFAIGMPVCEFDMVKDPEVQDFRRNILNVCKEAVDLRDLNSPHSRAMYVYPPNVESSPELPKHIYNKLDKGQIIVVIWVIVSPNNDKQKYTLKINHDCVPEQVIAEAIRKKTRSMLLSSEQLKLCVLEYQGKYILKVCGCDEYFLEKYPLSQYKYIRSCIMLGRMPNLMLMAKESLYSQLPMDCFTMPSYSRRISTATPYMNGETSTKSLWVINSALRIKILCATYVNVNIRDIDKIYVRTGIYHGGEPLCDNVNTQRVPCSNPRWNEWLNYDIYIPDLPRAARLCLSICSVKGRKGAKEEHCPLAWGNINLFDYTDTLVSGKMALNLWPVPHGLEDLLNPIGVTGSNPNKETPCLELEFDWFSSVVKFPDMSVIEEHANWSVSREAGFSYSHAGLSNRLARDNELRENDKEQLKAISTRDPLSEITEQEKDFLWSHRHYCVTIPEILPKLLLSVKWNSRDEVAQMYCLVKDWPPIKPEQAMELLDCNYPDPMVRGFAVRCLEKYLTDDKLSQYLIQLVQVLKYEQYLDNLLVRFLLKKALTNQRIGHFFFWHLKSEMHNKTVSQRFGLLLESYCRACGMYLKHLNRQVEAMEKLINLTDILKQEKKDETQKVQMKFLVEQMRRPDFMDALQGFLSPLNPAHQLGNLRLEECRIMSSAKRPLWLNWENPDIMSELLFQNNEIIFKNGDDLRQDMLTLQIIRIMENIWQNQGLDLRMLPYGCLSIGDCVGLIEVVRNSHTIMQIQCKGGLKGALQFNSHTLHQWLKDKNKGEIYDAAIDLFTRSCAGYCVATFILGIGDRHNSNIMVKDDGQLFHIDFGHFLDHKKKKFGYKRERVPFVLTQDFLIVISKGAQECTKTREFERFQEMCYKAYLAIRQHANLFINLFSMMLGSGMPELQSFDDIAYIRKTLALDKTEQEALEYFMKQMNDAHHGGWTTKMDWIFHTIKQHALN
Cyclin-dependent kinase 4, sequence (P11802 whole entry): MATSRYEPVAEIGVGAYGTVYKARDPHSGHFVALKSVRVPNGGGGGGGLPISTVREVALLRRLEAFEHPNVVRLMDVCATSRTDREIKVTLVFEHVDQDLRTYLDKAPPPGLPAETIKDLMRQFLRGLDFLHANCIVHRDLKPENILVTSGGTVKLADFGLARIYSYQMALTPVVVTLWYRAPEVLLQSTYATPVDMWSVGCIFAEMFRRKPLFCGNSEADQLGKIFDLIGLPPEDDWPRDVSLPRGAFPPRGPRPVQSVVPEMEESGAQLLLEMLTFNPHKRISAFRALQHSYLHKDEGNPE
Tyrosine-protein kinase BTK, sequence (Q06187 whole entry): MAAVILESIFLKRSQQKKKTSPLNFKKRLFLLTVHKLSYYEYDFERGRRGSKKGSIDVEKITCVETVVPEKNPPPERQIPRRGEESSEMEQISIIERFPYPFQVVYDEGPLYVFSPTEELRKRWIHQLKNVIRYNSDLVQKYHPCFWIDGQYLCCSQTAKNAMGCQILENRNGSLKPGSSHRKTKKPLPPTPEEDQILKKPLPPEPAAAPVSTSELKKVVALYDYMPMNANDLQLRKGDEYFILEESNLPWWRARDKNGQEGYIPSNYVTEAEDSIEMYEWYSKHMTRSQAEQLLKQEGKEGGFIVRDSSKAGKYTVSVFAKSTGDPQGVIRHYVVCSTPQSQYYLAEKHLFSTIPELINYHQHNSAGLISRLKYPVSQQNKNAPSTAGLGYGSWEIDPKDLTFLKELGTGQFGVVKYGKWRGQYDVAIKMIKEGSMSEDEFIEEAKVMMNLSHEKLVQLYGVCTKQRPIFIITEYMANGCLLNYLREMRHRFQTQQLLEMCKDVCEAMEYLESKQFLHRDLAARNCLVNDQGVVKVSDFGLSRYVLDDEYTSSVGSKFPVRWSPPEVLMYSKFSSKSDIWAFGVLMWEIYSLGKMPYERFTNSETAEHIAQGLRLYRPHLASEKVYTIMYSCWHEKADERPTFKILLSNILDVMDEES
Tyrosine-protein kinase Lck, sequence (P06239 whole entry): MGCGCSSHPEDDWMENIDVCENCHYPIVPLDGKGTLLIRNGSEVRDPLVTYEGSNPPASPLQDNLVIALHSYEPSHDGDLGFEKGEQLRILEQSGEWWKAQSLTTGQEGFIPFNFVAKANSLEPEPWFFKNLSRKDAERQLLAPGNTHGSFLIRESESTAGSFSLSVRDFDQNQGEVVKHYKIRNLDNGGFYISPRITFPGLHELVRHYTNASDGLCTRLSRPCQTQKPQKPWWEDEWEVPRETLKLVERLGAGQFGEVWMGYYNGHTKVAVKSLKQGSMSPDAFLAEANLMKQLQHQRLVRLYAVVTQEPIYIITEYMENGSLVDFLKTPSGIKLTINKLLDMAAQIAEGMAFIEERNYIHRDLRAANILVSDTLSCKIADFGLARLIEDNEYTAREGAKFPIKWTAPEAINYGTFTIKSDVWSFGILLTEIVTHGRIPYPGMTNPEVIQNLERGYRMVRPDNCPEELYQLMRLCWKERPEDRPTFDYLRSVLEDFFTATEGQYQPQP

SMILES	IC50 [1] [µM]	other results
O=C(Nc1cccc(-c2ccnc3c(C(=O)NCCN4CCOCC4)cnn23)c1)Nc1ccc(Cl)c(C(F)(F)F)c1	0.16	
CCOC(=O)c1cnn2c(-c3cccc(NC(=O)c4cccc(OC(F)(F)F)c4)c3)ccnc12	1.57	
CCOC(=O)c1cnn2c(-c3cccc(NC(=O)c4ccc(OC)c(C(F)(F)F)c4)c3)ccnc12	1.03	
O=C(Nc1cccc(-c2ccnc3c(C(=O)NCCN4CCOCC4)cnn23)c1)c1cccc(C(F)(F)F)c1	6.34	
CCOC(=O)c1cnn2c(-c3cccc(NC(=O)c4cccc(C#N)c4)c3)ccnc12	> 10	
CCOC(=O)c1cnn2c(-c3cccc(NC(=O)Nc4ccc(C)c(C(F)(F)F)c4)c3)ccnc12	0.36	
COCCCNC(=O)c1cnn2c(-c3cccc(NC(=O)Nc4ccc(Cl)c(C(F)(F)F)c4)c3)ccnc12	0.27	
CCOC(=O)c1cnn2c(-c3cccc(NC(=O)c4ccccc4)c3)ccnc12	> 10	
CCOC(=O)c1cnn2c(-c3cccc(NC(=O)Nc4cccc(C(F)(F)F)c4)c3)ccnc12	0.54	
CCOC(=O)c1cnn2c(-c3cccc(NC(=O)Nc4cc(C(F)(F)F)ccc4Cl)c3)ccnc12	> 10	
CCOC(=O)c1cnn2c(-c3cccc(NC(=O)Nc4cccc(Cl)c4)c3)ccnc12	> 10	
CCOC(=O)c1cnn2c(-c3cccc(NC(=O)Nc4ccc(F)c(C(F)(F)F)c4)c3)ccnc12	0.24	
CCN(CC)CCNC(=O)c1cnn2c(-c3cccc(NC(=O)Nc4ccc(Cl)c(C(F)(F)F)c4)c3)ccnc12	0.17	
CCOC(=O)c1cnn2c(-c3cccc(NC(=O)Nc4ccc(C(F)(F)F)cc4)c3)ccnc12	3.6	
CCOC(=O)c1cnn2c(-c3cccc(NC(=O)c4cc(C(F)(F)F)ccc4C)c3)ccnc12	> 10	
CCOC(=O)c1cnn2c(-c3cccc(NC(=O)c4ccc(Cl)c(C(F)(F)F)c4)c3)ccnc12	4.27	
CCOC(=O)c1cnn2c(-c3cccc(NC(=O)Nc4ccc(Cl)c(C(F)(F)F)c4)c3)ccnc12	0.36	
O=C(Nc1cccc(-c2ccnc3c(C(=O)OCC(F)(F)F)cnn23)c1)c1cccc(C(F)(F)F)c1	1.45	
CCOC(=O)c1cnn2c(-c3cccc(NC(=O)c4cccc(C(F)(F)F)c4)c3)ccnc12	1.54	IC50 [2]: > 10 µM; IC50 [3]: 3.87 µM; IC50 [4]: > 10 µM; IC50 [5]: 6.6 µM; IC50 [6]: 6.2 µM; IC50 [7]: > 10 µM; IC50 [8]: > 10 µM; IC50 [9]: 3.25 µM; IC50 [10]: > 10 µM; IC50 [11]: > 10 µM; IC50 [12]: > 10 µM; IC50 [13]: > 10 µM; IC50 [14]: 7 µM; IC50 [15]: 3.8 µM; IC50 [16]: > 10 µM; IC50 [17]: > 10 µM; IC50 [18]: > 10 µM; IC50 [19]: 8.3 µM

From ChEMBL document CHEMBL1151868, “Identification of pyrazolo[1,5-a]pyrimidine-3-carboxylates as B-Raf kinase inhibitors” (Bioorg Med Chem Lett, 2009)
